Source: PubChem BioAssay (NCI)
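A five-concentration, 48-hour dose response in 96-well plates underlies each endpoint, interpolated linearly between surrounding concentrations. GI50 marks 50% less growth. TGI is the concentration that stops growth completely.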

Assays:
Test in all cases: NCI-60 cell line screen, 48 h
SNB-75 CNS = test system: SNB-75 CNS
A549 NSCLC = test system: A549 NSCLC
MALME-3M melanoma = test system: MALME-3M melanoma
HCC-2998 colon = test system: HCC-2998 colon
IGROV1 ovarian = test system: IGROV1 ovarian
OVCAR-3 ovarian = test system: OVCAR-3 ovarian
MDA-N = test system: MDA-N
OVCAR-8 ovarian = test system: OVCAR-8 ovarian
SF-539 CNS = test system: SF-539 CNS
BT-549 breast = test system: BT-549 breast

Row | Compound | TGI (SNB-75 CNS) [µM] | TGI (A549 NSCLC) [µM] | TGI (MALME-3M melanoma) [µM] | TGI (HCC-2998 colon) [µM] | TGI (IGROV1 ovarian) [µM] | TGI (OVCAR-3 ovarian) [µM] | TGI (MDA-N) [µM] | TGI (OVCAR-8 ovarian) [µM] | TGI (SF-539 CNS) [µM] | TGI (BT-549 breast) [µM] | GI50 (SNB-75 CNS) [µM] | GI50 (A549 NSCLC) [µM] | GI50 (MALME-3M melanoma) [µM] | GI50 (HCC-2998 colon) [µM] | GI50 (IGROV1 ovarian) [µM] | GI50 (OVCAR-3 ovarian) [µM] | GI50 (OVCAR-8 ovarian) [µM] | GI50 (SF-539 CNS) [µM] | GI50 (BT-549 breast) [µM]
1 | CCC1(OC(=O)CN2CCN(CCO)CC2)C(=O)OCc2c1cc1n(c2=O)Cc2cc3ccccc3nc2-1 (stereo not drawn) | 1.92 | 29.5 | 12 | 6.29 | 17.4 | 3.81 | 13.1 | 16 | 1.73 | 20.4 |  |  |  |  |  |  |  |  | 
2 | COc1ccc(/C=C2\CN(C(=O)CCN3CCC(=NO)CC3)C/C(=C\c3ccc(OC)cc3)C2=O)cc1 | 9.33 | 11.7 | 7.49 | 3.51 | 4.36 | 3.56 |  | 16 | 3.18 | 6.08 | 2.14 | 3.28 | 2.5 | 1.85 | 1.94 | 1.89 | 3.22 | 1.71 | 2.17
3 | CSC(SC)=C1C(=O)NN=C1C |  | > 100 | > 100 | > 100 | > 100 | > 100 | > 100 |  | > 100 | > 100 |  |  |  |  |  |  |  |  | 
4 | COCCOCN(C(=O)C1=CCC2(CC1)OCCO2)c1ccccc1I | > 50 | > 50 |  | > 50 |  | > 50 | > 50 | > 50 |  |  |  |  |  |  |  |  |  |  | 
5 | CCOc1ccc2ccccc2c1NC1=NCCO1 | > 100 | > 100 | > 100 | > 100 | > 100 |  |  | > 100 | > 100 |  |  |  |  |  |  |  |  |  | 
6 | S=C(NNC1=NCCCN1)Nc1ccccc1 | > 100 | > 100 | > 100 | > 100 | > 100 | > 100 |  | > 100 | > 100 | > 100 |  |  |  |  |  |  |  |  | 
7 | CCOC(=O)C1(Cc2ccccc2)Cc2cc3c(cc2C1)CCC3 |  | > 100 | > 100 | 52.8 | > 100 | > 100 | > 100 | > 100 | > 100 | 95.3 |  |  |  |  |  |  |  |  | 
8 | CSCCC(NCc1c(O)ccc2ccc(=O)oc12)C(=O)O (stereo not drawn) | > 100 | > 100 | > 100 | > 100 | > 100 | > 100 | > 100 | > 100 | > 100 |  |  |  |  |  |  |  |  |  | 
9 | O=C1/C(=C\c2ccc([N+](=O)[O-])cc2)Sc2scc(-c3ccc(O)c(O)c3)[n+]21 | 25.9 | 55.4 |  | 19 | 19.7 | 9.79 | 25.6 | 29.3 | 22.5 |  |  |  |  |  |  |  |  |  | 
10 | COc1cc2cc(Oc3ccc(NC(=O)Nc4ccc(F)c(C(F)(F)F)c4)cc3)c(C)nc2cc1OCCN1CCCCC1 | 2.6 |  |  |  |  | 3.44 |  |  | 3.08 |  | 1.33 |  |  |  |  | 1.87 |  | 1.68 | 
11 | O=C1NCC2(CCNCC2)N1c1ccccc1 | > 100 | > 100 | > 100 | > 100 | > 100 | > 100 | > 100 | > 100 | > 100 |  |  |  |  |  |  |  |  |  | 
12 | Cc1ccc(-c2sc(-c3ccc(C)cc3)c3c2C2CCC3C2)cc1 |  | > 50 | > 50 |  | > 50 | > 50 | > 50 | > 50 | > 50 | > 50 |  |  |  |  |  |  |  |  | 
13 | CC(=O)OCCC1c2ccccc2-n2nc(-c3ccccc3)c(O)c21 (stereo not drawn) | 37.7 | 37.3 |  | 56 |  | 49.3 | 33.2 | 55.9 | 44.7 | 33.3 |  |  |  |  |  |  |  |  | 
14 | CCOc1ccc(N2C(=O)C3c4[nH]c5ccccc5c4C4CCC(C(C)(C)C)CC4C3C2=O)cc1 (stereo not drawn) | > 100 | > 100 | > 100 | 79.4 | > 100 |  |  | > 100 | > 100 |  |  |  |  |  |  |  |  |  | 
15 | CC(=O)OC1/C(=C/c2ccc([N+](=O)[O-])cc2)C[C@H]2[C@@H]3CC=C4C[C@@H](OC(C)=O)CC[C@]4(C)[C@H]3CC[C@]12C (stereo partly drawn) |  | > 100 | > 100 | > 100 | > 100 | > 100 | > 100 | > 100 | > 100 | > 100 |  |  |  |  |  |  |  |  | 
16 | COC(=O)[C@@H]1C=C[C@@H](C#N)n2c(=O)n(-c3ccccc3)c(=O)n21 | 79 |  |  | > 100 | > 100 | 58.9 |  | 57.8 | 65.3 | > 100 |  |  |  |  |  |  |  |  | 
17 | Cc1cn(CC2=NCCN2)c(=O)[nH]c1=O | > 100 | > 100 | > 100 | > 100 | > 100 |  | > 100 | > 100 |  | > 100 |  |  |  |  |  |  |  |  | 
18 | Clc1ccccc1/C=C/c1nsc(/C=C/c2ccccc2Cl)n1 | > 100 | > 100 | > 100 |  | > 100 | > 100 | > 100 | > 100 | > 100 | > 100 |  |  |  |  |  |  |  |  | 
19 | CC(O)c1c2c(cc3c1CC1(C3)Cc3cc4c(c(C(C)O)c3C1)CCC4)CCC2 (stereo not drawn) |  | 33.1 | 34.5 | 40.2 | 42.3 | 29.4 |  | > 100 | 46.4 |  |  |  |  |  |  |  |  |  | 
20 | Cc1nc(-c2ccccc2)c(C)n2c1nc1ccccc12 | 66.3 | > 100 | > 100 |  | > 100 | 54.8 | > 100 | 70.1 | > 100 | 65.5 |  |  |  |  |  |  |  |  | 
21 | COC(=O)C1Cc2c([nH]c3ccccc23)C(c2cccc(O)c2)N1 (stereo not drawn) | 74.3 | > 100 |  | 48.3 | > 100 | > 100 | 40.1 | > 100 | > 100 | 72 |  |  |  |  |  |  |  |  | 
22 | Cc1ccc(/C=C2\CN(C)CC3C(c4ccc(C)cc4)=C(C#N)C(=O)NC23)cc1 (stereo not drawn) |  | > 50 | > 50 | > 50 | > 50 | > 50 | > 50 | > 50 |  | > 50 |  |  |  |  |  |  |  |  | 
